Test results as given in patent US8852554B2, “Radiolabelled PDE10 ligands” (Janssen Pharmaceutica NV, priority 2009, dated 2014).
“And” between values parts separate entries of the source, which are not always exact repeats. Equal values may be shown once.

Test: Biodistribution studies of the 18F tracers in rats
Type: in vivo, male Wistar rats
Details: rat
Description: Biodistribution studies were carried out in healthy male Wister rats (body weight 200-500 g) at 2 min, 30 min and 60 min post injection (p.i.) (n=3/time point). For |^18F|B-4 only the 2 min and 30 min time points were studied. […] Blood and major organs were collected in tared tubes and weighed. The radioactivity in blood, organs and other body parts was measured using an automated gamma counter. The distribution of radioactivity in different parts of the body at different time points p.i. of the tracer was calculated and expressed as percentage of injected dose (% ID), and as percentage of injected dose per gram tissue (% ID/g) for the selected organs. % ID is calculated as cpm in organ/total cpm recovered. For calculation of total radioactivity in blood, blood mass was assumed to be 7% of the body mass.

retention in the PDE10A-rich region striatum (biodistribution studies): no significant retention
% ID, Carcass (i.v., 2 min p.i.): 33.12 ± 2.3 % ID
% ID, Cerebellum (i.v., 2 min p.i.): 0.09 % ID and 0.091 ± 0.018 % ID
% ID, Cerebrum total (i.v., 2 min p.i.): 0.49 % ID and 0.490 ± 0.067 % ID
% ID, Cortex (i.v., 2 min p.i.): 0.069 ± 0.008 % ID
% ID, Heart (i.v., 2 min p.i.): 0.60 ± 0.1 % ID
% ID, Hippocampus (i.v., 2 min p.i.): 0.018 ± 0.004 % ID
% ID, Intestines (i.v., 2 min p.i.): 10.79 ± 1.5 % ID
% ID, Kidneys (i.v., 2 min p.i.): 4.24 ± 0.5 % ID
% ID, Liver (i.v., 2 min p.i.): 41.94 ± 2.2 % ID
% ID, Lungs (i.v., 2 min p.i.): 0.92 ± 0.2 % ID
% ID, Rest of cerebrum (i.v., 2 min p.i.): 0.367 ± 0.054 % ID
% ID, Spleen + Pancreas (i.v., 2 min p.i.): 1.92 ± 0.2 % ID
% ID, Stomach (i.v., 2 min p.i.): 3 % ID and 3.09 ± 0.1 % ID
% ID, Striatum (i.v., 2 min p.i.): 0.036 ± 0.012 % ID
% ID, Urine (i.v., 2 min p.i.): 0.09 ± 0.1 % ID
% ID/g, Blood (i.v., 2 min p.i.): 0.21 ± 0.02 % ID/g
% ID/g, Cerebellum (i.v., 2 min p.i.): 0.607 ± 0.019 % ID/g
% ID/g, Cerebrum + Cerebellum (i.v., 2 min p.i.): 0.47 ± 0.03 % ID/g
% ID/g, Cerebrum total (i.v., 2 min p.i.): 0.444 ± 0.026 % ID/g
% ID/g, Cortex (i.v., 2 min p.i.): 0.734 ± 0.148 % ID/g
% ID/g, Heart (i.v., 2 min p.i.): 0.76 ± 0.09 % ID/g
% ID/g, Hippocampus (i.v., 2 min p.i.): 0.307 ± 0.041 % ID/g
% ID/g, Liver (i.v., 2 min p.i.): 3.40 ± 0.31 % ID/g
% ID/g, Lungs (i.v., 2 min p.i.): 0.69 ± 0.34 % ID/g
% ID/g, Rest of cerebrum (i.v., 2 min p.i.): 0.411 ± 0.023 % ID/g
% ID/g, Spleen + Pancreas (i.v., 2 min p.i.): 1.47 ± 0.15 % ID/g
% ID/g, Striatum (i.v., 2 min p.i.): 0.648 ± 0.075 % ID/g
total initial brain uptake (i.v., 2 min p.i.): 0.59 % ID
% ID, Blood (i.v., 30 min p.i.): 2.40 ± 0.4 % ID
% ID, Carcass (i.v., 30 min p.i.): 25.50 ± 2.1 % ID
% ID, Cerebellum (i.v., 30 min p.i.): 0.028 ± 0.000 % ID
% ID, Cerebrum total (i.v., 30 min p.i.): 0.172 ± 0.012 % ID
% ID, Cortex (i.v., 30 min p.i.): 0.026 ± 0.004 % ID
% ID, Heart (i.v., 30 min p.i.): 0.21 ± 0.0 % ID
% ID, Hippocampus (i.v., 30 min p.i.): 0.006 ± 0.000 % ID
% ID, Intestines (i.v., 30 min p.i.): 14.67 ± 3.3 % ID
% ID, Kidneys (i.v., 30 min p.i.): 1.44 ± 0.2 % ID
% ID, Liver (i.v., 30 min p.i.): 45.29 ± 5.2 % ID
% ID, Lungs (i.v., 30 min p.i.): 0.42 ± 0.1 % ID
% ID, Rest of cerebrum (i.v., 30 min p.i.): 0.127 ± 0.010 % ID
% ID, Spleen + Pancreas (i.v., 30 min p.i.): 0.57 ± 0.2 % ID
% ID, Stomach (i.v., 30 min p.i.): 10 % ID and 9.73 ± 1.7 % ID
% ID, Striatum (i.v., 30 min p.i.): 0.013 ± 0.001 % ID
% ID, Urine (i.v., 30 min p.i.): 0.29 ± 0.0 % ID
SMILES: Cc1cccc(COc2ccc(-c3nn(CC[18F])cc3-c3ccncc3)cc2)n1 [[^18F]B-1]
2 min/30 min ratios of % ID/g (normalized for body weight), all brain regions (i.v.): ≥ 2.49
Clearance, 2 min/30 min ratio of % ID/g (normalized for body weight), Blood (i.v.): 1.65
Clearance, 2 min/30 min ratio of % ID/g (normalized for body weight), Cerebellum (i.v.): 4.01
Clearance, 2 min/30 min ratio of % ID/g (normalized for body weight), Cerebrum total (i.v.): 2.88
Clearance, 2 min/30 min ratio of % ID/g (normalized for body weight), Cortex (i.v.): 3.47
Clearance, 2 min/30 min ratio of % ID/g (normalized for body weight), Hippocampus (i.v.): 3.06
Clearance, 2 min/30 min ratio of % ID/g (normalized for body weight), Rest of cerebrum (i.v.): 2.86
Clearance, 2 min/30 min ratio of % ID/g (normalized for body weight), Striatum (i.v.): 2.49
Clearance, 2 min/60 min ratio of % ID/g (normalized for body weight), Blood (i.v.): 1.83
Clearance, 2 min/60 min ratio of % ID/g (normalized for body weight), Cerebellum (i.v.): 6.60
Clearance, 2 min/60 min ratio of % ID/g (normalized for body weight), Cerebrum total (i.v.): 3.60
Clearance, 2 min/60 min ratio of % ID/g (normalized for body weight), Cortex (i.v.): 5.55
Clearance, 2 min/60 min ratio of % ID/g (normalized for body weight), Hippocampus (i.v.): 3.63
Clearance, 2 min/60 min ratio of % ID/g (normalized for body weight), Rest of cerebrum (i.v.): 3.29
Clearance, 2 min/60 min ratio of % ID/g (normalized for body weight), Striatum (i.v.): 3.41
% ID/g normalized for body weight, Blood (i.v., 2 min p.i.): 0.06 ± 0.01 % ID/g × body wt. in kg
% ID/g normalized for body weight, Cerebellum (i.v., 2 min p.i.): 0.164 ± 0.01 % ID/g × body wt. in kg
% ID/g normalized for body weight, Cerebrum + Cerebellum (i.v., 2 min p.i.): 0.13 ± 0.01 % ID/g × body wt. in kg
% ID/g normalized for body weight, Cerebrum total (i.v., 2 min p.i.): 0.120 ± 0.01 % ID/g × body wt. in kg
% ID/g normalized for body weight, Cortex (i.v., 2 min p.i.): 0.199 ± 0.04 % ID/g × body wt. in kg
% ID/g normalized for body weight, Heart (i.v., 2 min p.i.): 0.21 ± 0.02 % ID/g × body wt. in kg
% ID/g normalized for body weight, Hippocampus (i.v., 2 min p.i.): 0.083 ± 0.01 % ID/g × body wt. in kg
% ID/g normalized for body weight, Kidneys (i.v., 2 min p.i.): 0.47 ± 0.05 % ID/g × body wt. in kg
% ID/g normalized for body weight, Liver (i.v., 2 min p.i.): 0.92 ± 0.05 % ID/g × body wt. in kg
% ID/g normalized for body weight, Lungs (i.v., 2 min p.i.): 0.19 ± 0.08 % ID/g × body wt. in kg
% ID/g normalized for body weight, Rest of cerebrum (i.v., 2 min p.i.): 0.111 ± 0.00 % ID/g × body wt. in kg
% ID/g normalized for body weight, Spleen + Pancreas (i.v., 2 min p.i.): 0.40 ± 0.03 % ID/g × body wt. in kg
% ID/g normalized for body weight, Striatum (i.v., 2 min p.i.): 0.175 ± 0.02 % ID/g × body wt. in kg
striatum/blood ratio (from % ID/g normalized for body weight) (i.v., 2 min p.i.): 3.10
striatum/cerebellum ratio (from % ID/g normalized for body weight) (i.v., 2 min p.i.): 1.07
striatum/cortex ratio (from % ID/g normalized for body weight) (i.v., 2 min p.i.): 0.88
striatum/hippocampus ratio (from % ID/g normalized for body weight) (i.v., 2 min p.i.): 2.11
% ID/g normalized for body weight, Blood (i.v., 30 min p.i.): 0.03 ± 0.01 % ID/g × body wt. in kg
